Experimental data taken from PubChem BioAssay (NCI).
Several values for one entry are separate records, joined by “and”; a condition that tells them apart may be missing. Identical values can stand only once.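 Compound exposure: 48 hours, 5 concentrations, 96-well plates. GI50 marks 50% less growth. TGI: total growth inhibition.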

Assays:
Assay in all cases: growth of human tumour cells (NCI), 48 h
HOP-62 NSCLC = system: HOP-62 NSCLC
SW-620 colon = system: SW-620 colon
IGROV1 ovarian = system: IGROV1 ovarian
HT29 colon = system: HT29 colon
TK-10 renal = system: TK-10 renal
ACHN renal = system: ACHN renal
A498 renal = system: A498 renal
SN12C renal = system: SN12C renal
SNB-75 CNS = system: SNB-75 CNS
SR leukemia = system: SR leukemia

CCOC(=O)c1cc(=O)n(C)c(=O)n1C
TGI (HOP-62 NSCLC): > 100 µM
TGI (SW-620 colon): > 100 µM
TGI (IGROV1 ovarian): > 100 µM
TGI (HT29 colon): > 100 µM
TGI (TK-10 renal): > 100 µM
TGI (ACHN renal): > 100 µM
TGI (A498 renal): > 100 µM
TGI (SN12C renal): > 100 µM
TGI (SNB-75 CNS): > 100 µM

N#Cc1c2ccccc2c(Cc2ccc3c(c2)OCCOCCOCCOCCOCCO3)c2ccccc12
TGI (HOP-62 NSCLC): 23.6 µM
TGI (SW-620 colon): 32.1 µM
TGI (SR leukemia): > 100 µM
TGI (IGROV1 ovarian): 19.5 µM
TGI (TK-10 renal): 19.3 µM
TGI (ACHN renal): 21.7 µM
TGI (A498 renal): 27.6 µM
TGI (SN12C renal): 22.8 µM

Brc1ccccc2cc(-c3ccccc3)nc1-2
TGI (HOP-62 NSCLC): 42.9 µM
TGI (SW-620 colon): > 36.2 µM
TGI (IGROV1 ovarian): 26.5 µM
TGI (HT29 colon): > 90.3 µM
TGI (TK-10 renal): 30.8 µM
TGI (ACHN renal): 20.6 µM
TGI (A498 renal): 42.7 µM
TGI (SN12C renal): 19.4 µM
TGI (SNB-75 CNS): 51.5 µM

COC(=O)[C@]12CC[C@@H](C)[C@H](C)[C@@H]1C1=CC[C@@H]3[C@@]4(C)C(C=O)=C[C@@](C)(CO)[C@@H]4[C@H](O)C[C@@]3(C)[C@]1(C)CC2
GI50 (HOP-62 NSCLC): 13.8 µM
TGI (HOP-62 NSCLC): 29.6 µM
GI50 (SW-620 colon): 4.23 µM
TGI (SW-620 colon): 15.8 µM
GI50 (SR leukemia): 1.92 µM
TGI (SR leukemia): 6.74 µM
GI50 (IGROV1 ovarian): 4.25 µM
TGI (IGROV1 ovarian): 21 µM
GI50 (HT29 colon): 2.44 µM
TGI (HT29 colon): 7.54 µM
GI50 (TK-10 renal): 2.49 µM
TGI (TK-10 renal): 9.42 µM
GI50 (ACHN renal): 3.47 µM
TGI (ACHN renal): 12.2 µM
GI50 (A498 renal): 6.37 µM
TGI (A498 renal): 19.4 µM
GI50 (SN12C renal): 4.85 µM
TGI (SN12C renal): 17.3 µM
GI50 (SNB-75 CNS): 2.72 µM
TGI (SNB-75 CNS): 19.3 µM

O=S(=O)(NC1=NCCN1C(=S)SN1CCn2c1nsc2=S)c1ccc(Oc2ccccc2)cc1
GI50 (HOP-62 NSCLC): > 100 µM
TGI (HOP-62 NSCLC): > 100 µM
GI50 (SW-620 colon): 67 µM
TGI (SW-620 colon): > 100 µM
GI50 (SR leukemia): 3.7 µM
TGI (SR leukemia): 45.8 µM
GI50 (IGROV1 ovarian): 31.8 µM
TGI (IGROV1 ovarian): > 100 µM
GI50 (HT29 colon): 54.7 µM
TGI (HT29 colon): > 100 µM
GI50 (TK-10 renal): 64.4 µM
TGI (TK-10 renal): > 100 µM
GI50 (ACHN renal): 81.3 µM
TGI (ACHN renal): > 100 µM
GI50 (A498 renal): 34.2 µM
TGI (A498 renal): 97 µM
GI50 (SN12C renal): 59.8 µM
TGI (SN12C renal): > 100 µM
GI50 (SNB-75 CNS): 39.5 µM
TGI (SNB-75 CNS): > 100 µM

Cc1ccccc1NC(=O)Cc1nc2ccccc2s1
TGI (SW-620 colon): 36 µM
TGI (SR leukemia): 63 µM
TGI (HT29 colon): 38.4 µM
TGI (TK-10 renal): 41 µM
TGI (ACHN renal): 29.7 µM
TGI (A498 renal): 35.7 µM
TGI (SN12C renal): 30.2 µM
TGI (SNB-75 CNS): > 100 µM

O=S1(=O)c2ccccc2N(c2ccccc2)c2nnnn21
TGI (HOP-62 NSCLC): 45.9 µM
TGI (SW-620 colon): 53.6 µM
TGI (IGROV1 ovarian): > 100 µM
TGI (HT29 colon): 67.8 µM
TGI (TK-10 renal): > 100 µM
TGI (ACHN renal): > 100 µM
TGI (A498 renal): 55.4 µM
TGI (SN12C renal): 39.1 µM

COc1ccc(Oc2nc3cc(N)cc(N)c3nc2-c2ccccc2)cc1
TGI (HOP-62 NSCLC): 40.8 µM
GI50 (SW-620 colon): 88.2 µM
TGI (SW-620 colon): > 100 µM
GI50 (SR leukemia): 18.5 µM
TGI (SR leukemia): > 100 µM
GI50 (IGROV1 ovarian): 24.9 µM
TGI (IGROV1 ovarian): > 100 µM
GI50 (HT29 colon): 39.9 µM
TGI (HT29 colon): > 100 µM
GI50 (TK-10 renal): 53.5 µM
TGI (TK-10 renal): > 100 µM
GI50 (ACHN renal): 36.4 µM
TGI (ACHN renal): > 100 µM
GI50 (A498 renal): 49.3 µM
TGI (A498 renal): > 100 µM
GI50 (SN12C renal): 50.1 µM
TGI (SN12C renal): > 100 µM

CCOC(=O)C1=C(OC(OCC)C([Se]c2ccccc2)C(C)C)CCC1 (configuration not stated)
TGI (HOP-62 NSCLC): > 100 µM
TGI (SR leukemia): 15.4 µM
TGI (IGROV1 ovarian): 52.4 µM
TGI (HT29 colon): 41.7 µM
TGI (TK-10 renal): > 100 µM
TGI (ACHN renal): 62 µM
TGI (A498 renal): > 100 µM
TGI (SN12C renal): 25.1 µM
TGI (SNB-75 CNS): 62.5 µM

C/C=C/C(=O)Oc1cccc2cccnc12
TGI (HOP-62 NSCLC): > 100 µM
TGI (SW-620 colon): 38.5 µM
TGI (SR leukemia): > 100 µM
TGI (IGROV1 ovarian): > 94.7 µM
TGI (HT29 colon): 58 µM
TGI (TK-10 renal): > 100 µM
TGI (ACHN renal): > 100 µM
TGI (SN12C renal): > 78.2 µM
TGI (SNB-75 CNS): > 75.6 µM

COc1cc(OCc2ccccc2)c2c(CCC(=O)O)cc(=O)oc2c1 (tested in a mixture with another compound)
TGI (SW-620 colon): > 100 µM
TGI (SR leukemia): > 100 µM
TGI (IGROV1 ovarian): > 100 µM
TGI (HT29 colon): > 100 µM
TGI (TK-10 renal): 96.6 µM
TGI (ACHN renal): > 100 µM
TGI (A498 renal): 80.6 µM
TGI (SNB-75 CNS): > 100 µM

CC(=O)[CH-]C(=O)c1ccccc1.CC(=O)[CH-]C(=O)c1ccccc1.Cl.[O-]c1ccnc2ccccc12.[O-]c1ccnc2ccccc12.[Ti+4]
GI50 (HOP-62 NSCLC): > 100 µM
TGI (HOP-62 NSCLC): > 100 µM
GI50 (SW-620 colon): > 100 µM
TGI (SW-620 colon): > 100 µM
GI50 (IGROV1 ovarian): > 100 µM
TGI (IGROV1 ovarian): > 100 µM
GI50 (HT29 colon): > 100 µM
TGI (HT29 colon): > 100 µM
GI50 (ACHN renal): > 100 µM
TGI (ACHN renal): > 100 µM
GI50 (A498 renal): > 100 µM
TGI (A498 renal): > 100 µM
GI50 (SN12C renal): > 100 µM
TGI (SN12C renal): > 100 µM
GI50 (SNB-75 CNS): > 100 µM
TGI (SNB-75 CNS): > 100 µM

O=C(O)c1ccc2c(c1)C(=O)N(c1ccc(S(=O)(=O)c3ccc(N4C(=O)c5ccc(C(=O)O)cc5C4=O)cc3)cc1)C2=O
TGI (HOP-62 NSCLC): > 100 µM
TGI (SW-620 colon): > 100 µM
TGI (SR leukemia): > 100 µM
TGI (HT29 colon): > 100 µM
TGI (TK-10 renal): > 100 µM
TGI (ACHN renal): > 100 µM
TGI (A498 renal): > 100 µM
TGI (SN12C renal): > 100 µM
TGI (SNB-75 CNS): > 100 µM

c1ccc(-c2[nH]ncc2-c2ccnc(-c3ccc(OCCN4CCOCC4)cc3)c2)nc1
GI50 (HOP-62 NSCLC): > 25 µM
TGI (HOP-62 NSCLC): > 25 µM
GI50 (SW-620 colon): > 25 µM
TGI (SW-620 colon): > 25 µM
GI50 (IGROV1 ovarian): > 25 µM
TGI (IGROV1 ovarian): > 25 µM
GI50 (HT29 colon): > 25 µM
TGI (HT29 colon): > 25 µM
GI50 (TK-10 renal): > 25 µM
TGI (TK-10 renal): > 25 µM
GI50 (ACHN renal): > 25 µM
TGI (ACHN renal): > 25 µM
GI50 (A498 renal): > 25 µM
TGI (A498 renal): > 25 µM
GI50 (SN12C renal): > 25 µM
TGI (SN12C renal): > 25 µM
GI50 (SNB-75 CNS): > 25 µM
TGI (SNB-75 CNS): > 25 µM

Cc1ccc(N)cc1[As]=[As]c1cc(N)ccc1C (configuration not stated)
GI50 (HOP-62 NSCLC): 1.72 µM
TGI (HOP-62 NSCLC): 3.19 µM
GI50 (SW-620 colon): 1.27 µM
TGI (SW-620 colon): 3.2 µM
GI50 (SR leukemia): 0.944 µM
TGI (SR leukemia): > 25.1 µM
GI50 (IGROV1 ovarian): 1.88 µM
TGI (IGROV1 ovarian): 4.18 µM
GI50 (TK-10 renal): 1.47 µM
TGI (TK-10 renal): 2.81 µM
GI50 (ACHN renal): 1.67 µM
TGI (ACHN renal): 3.26 µM
GI50 (A498 renal): 1.29 µM
TGI (A498 renal): 2.64 µM
GI50 (SN12C renal): 1.4 µM
TGI (SN12C renal): 2.88 µM
GI50 (SNB-75 CNS): 1.27 µM
TGI (SNB-75 CNS): 2.59 µM

COC(=O)[C@H](Cc1cn(C)cn1)NC(=O)[C@H](CC(=O)OCc1ccccc1)NC(=O)Nc1cc(C(F)(F)F)cc(C(F)(F)F)c1
GI50 (HOP-62 NSCLC): 5.03 µM
TGI (HOP-62 NSCLC): 16.9 µM
GI50 (SW-620 colon): 6.66 µM
TGI (SW-620 colon): 21.1 µM
GI50 (SR leukemia): 3.67 µM and 2.04 µM
TGI (SR leukemia): 9.41 µM and 4.34 µM
GI50 (IGROV1 ovarian): 14.5 µM
TGI (IGROV1 ovarian): 29.2 µM
GI50 (HT29 colon): 13.9 µM
TGI (HT29 colon): 28.8 µM
GI50 (ACHN renal): 10.4 µM
TGI (ACHN renal): 24 µM
GI50 (A498 renal): 12.8 µM
TGI (A498 renal): 25.4 µM
GI50 (SN12C renal): 4.79 µM
TGI (SN12C renal): 17.3 µM
GI50 (SNB-75 CNS): 11.8 µM
TGI (SNB-75 CNS): 24.1 µM

COc1cc(-c2nn(-c3ccc(NC(=O)Nc4cc(C(F)(F)F)cc(C(F)(F)F)c4)cc3)cc2-c2ccncc2)ccc1Cl
GI50 (HOP-62 NSCLC): 1.51 µM
TGI (HOP-62 NSCLC): 3.1 µM
GI50 (SW-620 colon): 1.87 µM
TGI (SW-620 colon): 3.84 µM
GI50 (IGROV1 ovarian): 2.65 µM
TGI (IGROV1 ovarian): 8.25 µM
GI50 (HT29 colon): 3.31 µM
TGI (HT29 colon): 12.3 µM
GI50 (TK-10 renal): 3.13 µM
TGI (TK-10 renal): 9.3 µM
GI50 (ACHN renal): 1.94 µM
TGI (ACHN renal): 7.86 µM
GI50 (A498 renal): 1.81 µM
TGI (A498 renal): 3.79 µM
GI50 (SN12C renal): 1.71 µM
TGI (SN12C renal): 4.21 µM
GI50 (SNB-75 CNS): 1.99 µM
TGI (SNB-75 CNS): 5.35 µM
